Measured values as given in PMC7958448, “Bepridil is potent against SARS-CoV-2 in vitro” (Proceedings of the National Academy of Sciences of the …, 2021).
Read-outs that look alike come from different tables or passages of the source.

Key:
[1] = system: SARS-CoV-2 in A549/ACE2 cells; experiment: microbe, parasite or virus in culture; assay type: cell-based; settings: Severe acute respiratory syndrome coronavirus 2, A549-ACE2, 96 h; read-out: EC50 in inhibiting SARS-CoV-2
[2] = system: SARS-CoV-2 in A549/ACE2 cells; assay type: cell-based; settings: 6 repeats
[3] = system: SARS-CoV-2 in Vero E6 cells; assay type: cell-based
[4] = system: SARS-CoV-2 in Vero E6 cells; experiment: microbe, parasite or virus in culture; assay type: cell-based; settings: Severe acute respiratory syndrome coronavirus 2, Vero C1008, 72 h; read-out: EC50 in inhibiting SARS-CoV-2
Ebola virus = settings: mouse, in vivo, 12 mg/kg; cited from earlier work
[5] = target: T1, SARS-CoV-2 main protease (Mpro) (Severe acute respiratory syndrome coronavirus 2, UniProt P0DTD1); settings: 1 mM medicine, relative to control without small molecule
[6] = target: T1, SARS-CoV-2 main protease (Mpro); experiment: biochemical
[7] = system: SARS-CoV-2 entry into mammalian cell hosts; settings: cell-based study; read-out: EC50 in inhibiting the SARS-CoV-2 entry; cited from earlier work

## CC(C)COCC(CN(Cc1ccccc1)c1ccccc1)N1CCCC1 (centres unmarked) [Bepridil]
[1]
  EC50: 460 nM
[2]; A549/ACE2, bepridil 6.25 µM
  SARS-CoV-2 induced CPE: No CPE
[2]; A549/ACE2, bepridil 12.5 µM
  SARS-CoV-2 induced CPE: No CPE
[2]; A549/ACE2, bepridil 25 µM
  SARS-CoV-2 induced CPE: No CPE
[2]; A549/ACE2, bepridil 50 µM
  SARS-CoV-2 induced CPE: No CPE
[3]
  SARS-CoV-2 induced CPE: No CPE
[3]; Vero E6, bepridil 6.25 µM, 6 repeats
  SARS-CoV-2 induced CPE: No CPE
[3]; Vero E6, bepridil 25 µM, 6 repeats
  SARS-CoV-2 induced CPE: No CPE
[4]
  EC50: 860 nM
Ebola virus
  protection from Ebola virus infections: 100%

## CCN1CC(CCN2CCOCC2)C(c2ccccc2)(c2ccccc2)C1=O (centres unmarked) [Doxapram]
[5]
  activation of Mpro: > 15%

## Cc1cccc(C)c1OCC(=O)N[C@@H](Cc1ccccc1)[C@@H](O)C[C@H](Cc1ccccc1)NC(=O)[C@H](C(C)C)N1CCCNC1=O [Lopinavir]
[6]; 50 nM Mpro, 10 µM Sub3, 20% DMSO, mean ± SE, triplicate
  IC50: 486000 ± 2000 nM
[6]; four-parameter variable slope fit of the IC50 curve
  Hill slope: 29.9 ± 2.4

## Cc1c(O)cccc1C(=O)N[C@@H](CSc1ccccc1)[C@H](O)CN1C[C@H]2CCCC[C@H]2C[C@H]1C(=O)NC(C)(C)C [Nelfinavir]
[7]
  EC50: 1000 nM

## CN1CCN(CC(=O)N2c3ccccc3C(=O)Nc3cccnc32)CC1 [Pirenzepine]
[5]
  activation of Mpro: > 15%

## CCOc1ccccc1OC(c1ccccc1)C1CNCCO1 (centres unmarked) [Reboxetine]
[5]
  activation of Mpro: > 15%

## CCOC(=O)/C=C/[C@H](C[C@@H]1CCNC1=O)NC(=O)[C@@H](CC(=O)[C@@H](NC(=O)c1cc(C)on1)C(C)C)Cc1ccc(F)cc1 [Rupintrivir]
[6]
  Hill slope: 1.4 ± 0.2
